Patent US20240321457A1, “SYSTEMS FOR AND METHODS OF TREATMENT SELECTION” (THE REGENTS OF THE UNIVERSITY OF CALIFORNIA, priority 2020, published 2024)
Each block holds one molecule with its values, some of them ahead of it.

Experiments:
[1] = tested on: PAK1/2 phosphorylation; experiment: PAK1/2 phosphorylation immunoblot after FGF stimulation; assay type: cell-based; settings: FGF stimulation 0, 5, 10, 30, 60 minutes
Method: (§1) CAL-33 and HET-1A cells were seeded on poly-D-lysine-coated 6-well plates. Cells were transfected with siRNA using Lipofectamine RNAiMAX (Thermo Fisher Scientific, Cat #100014472) according to manufacturer recommendations. After overnight serum starvation, cells were stimulated with vehicle, 10 ng/mL bFGF, or 10 μM CNO. Cells were washed once with PBS and lysed in RIPA buffer (50 mM Tris-HCl pH 6.8, 150 mM NaCl, 1% NP-40, 0.5% sodium deoxycholate, 0.1% SDS) with protease and phosphatase inhibitors (Bimake, Cat #B14001, B15001-A/B). Lysates were briefly sonicated and cleared by centrifugation before boiling in Laemmli sample buffer (Bio-Rad Cat #1610747). After separation on 10% acrylamide gels and transfer to PVDF membranes, membranes were blocked with 2% BSA in TBST before incubating with antibodies. […]
Referring to FIG. 15G, PAK1/2 autophosphorylation was measured by immunoblot analysis over a time course of FGF stimulation (0, 5, 10, 30, 60 minutes) in CAL-33 and HET-1A cells.

[2] = tested on: CAL-33 cells; experiment: Scratch migration assay; assay type: cell-based; settings: fibronectin-plated CAL-33 cells; 10 ng/mL bFGF, 24 hours; versus vehicle
Method: CAL-33 cells were seeded on 12-well plates coated with 10 μg/mL fibronectin in PBS (Sigma Aldrich, Cat #F2006-1MG). Once cells reached confluence, a vertical scratch was made with a pipette tip and washed well with PBS before adding serum-free media. Cells were stimulated with vehicle, 10 ng/mL bFGF, or 1% serum for 24 hours. Images were taken at the 0 and 24 hour time points (2× magnification) and the scratch area was quantified using ImageJ. Percent scratch closure was calculated for each well and significance assessed using a one-way ANOVA.
Referring to FIG. 15H, a vertical scratch was introduced to fibronectin-plated CAL-33 cells. Images were taken at 0 and 24 hours after FGF stimulation (scale bar=200 μm). (I) Quantification of replicate scratch closure assays from panel H (*P<0.05 when compared with the vehicle-treated group).

[3] = tested on: Gαi; experiment: NanoBiT Gαi1 dissociation assay (split luciferase); assay type: cell-based; settings: 60 minutes
Method: The NanoBiT G-protein dissociation assay, based on a split-luciferase system, was performed as previously described with some modifications (Inoue et al., 2019). All DNA constructs were provided by Dr. Asuka Inoue (Tohoku University, Japan). NanoBiT plasmids (pCAGGS) include Gαi1-LgBiT, Gβ1-native, and SmBiT-Gγ2 (CAAX C68S mutant). Gαi-DREADD (pcDNA3.1) was used as a synthetic Gαi-coupled GPCR. Briefly, CAL-33 and HET-1A cells were seeded on poly-D-lysine coated (Sigma, Cat #P7280), opaque, white 96-well plates (Falcon Cat #353296). The following day cells were transfected with NanoBiT and receptor plasmids using Lipofectamine 3000 (ThermoFisher Scientific, Cat #L3000008) according to manufacturer recommendations for a 12-well scale (10 μL transfection mix to each well). The NanoBiT plasmids were mixed at a ratio of 100 ng Gαi1-LgBiT, 500 ng Gβ1, 500 ng SmBiT-Gγ2, and 200 ng of receptor if needed. For gene knockdown experiments, 10 pmol of pooled siControl (Dharmacon, Cat #D-001810-10-20), siFGFR3 (Mission siRNA, Cat #SIHK0780, SIHK0781, SIHK0782), or siDaple (Dharmacon, Cat #L-033364-01-0005) was included in the plasmid mix. Media was changed the following day. Two days after transfection, media was aspirated from each well and washed once with HBSS. Cells were incubated in HBSS with a final concentration of 5 μM native coelenterazine (Biotium, Cat #10110-1) for 30 minutes at room temperature protected from light. Basal luminescence was read and ligand prepared for final concentrations of 10 ng/mL human bFGF (Roche Cat #11123149001) and 10 μM clozapine-N-oxide (Cayman Chemical, Cat #NC1044836). After ligand addition, luminescence was read in kinetic loops (each well ˜every 30 seconds) for 60 minutes total (Tecan Spark). Raw luminescent values were normalized to the corresponding basal value for each well and subsequently to the mean vehicle ratio (raw/basal) at time 0. Significance was calculated using a one-way ANOVA at the 60 minute time point.
To test this idea, a split luciferase assay (Gαi NanoBiT) was used, in which signal is lost upon activation of Gαi and dissociation from Gβγ (FIG. 15C and FIG. 16A). As a control, an engineered Designer Receptor Exclusively Activated by Designer Drugs (DREADD) receptor was first transfected, and the resulting cell population stimulated with the DREADD ligand, clozapine-N-oxide (CNO).
Referring to FIG. 15C, NanoBiT biosensor measures Gαi activation through dissociation of the luciferase split between Gα and Gβγ. CNO mediates canonical GPCR signaling through the synthetic Gαi-coupled DREADD receptor. FGF mediates HNSCC-specific signaling through FGFR3 and Daple.

[4] = tested on: ERK phosphorylation; experiment: ERK phosphorylation immunoblot after FGF stimulation; assay type: cell-based; settings: FGF 10 ng/mL, time course
Method: as §1
Referring to FIG. 16C, ERK phosphorylation over a time course was measured by immunoblotting in CAL-33 and HET-1A cells stimulated with FGF (10 ng/mL).

[5] = tested on: solid tumors with FGFR mRNA overexpression; settings: phase I trials; cited from earlier work

Gαi activation (loss of luciferase signal) ([3]; CAL-33 cells, Gαi NanoBiT, FGF 10 ng/mL): induce Gαi activation
Gαi activation (loss of luciferase signal) ([3]; HET-1A cells, Gαi NanoBiT, FGF 10 ng/mL): no such activation occurred
Molecule: FGF: human bFGF (Roche), fibroblast growth factor used as ligand for stimulation
phosphorylation of PAK1/2 ([1]; CAL-33 cells): results in downstream phosphorylation of PAK1/2
phosphorylation of PAK1/2 ([1]; HET-1A cells): not observed
cell migration (scratch closure) [2]: statistically significant increase
ERK phosphorylation ([4]; CAL-33 cells): rapidly induced ERK phosphorylation
ERK phosphorylation ([4]; HET-1A cells): rapidly induced ERK phosphorylation

Molecule: COCc1c(-c2cc3cc(C)cc(OC)c3s2)c2c(N)ncnn2c1CN1CCNC(=O)C1 [rogaratinib]
objective response rate [5]: 67%

Gαi activation (loss of luciferase signal) ([3]; CAL-33 cells expressing Gαi NanoBiT and DREADD receptor, CNO 10 μM): Robust Gαi activation
Gαi activation (loss of luciferase signal) ([3]; HET-1A cells expressing Gαi NanoBiT and DREADD receptor, CNO 10 μM): Robust Gαi activation
Molecule: C[N+]1([O-])CCN(C2=Nc3cc(Cl)ccc3Nc3ccccc32)CC1 [CNO, clozapine-N-oxide]
